# Laboratory results published in ChEMBL document CHEMBL1681738, “Efficient synthesis of triazole moiety-containing nucleotide analogs and their inhibitory effects on a malic enzyme” (Bioorg Med Chem Lett, 2011).
# Activity calls are given as the source filed them. The rule behind the calls is not given here.
# Target: NAD-dependent malic enzyme (Escherichia coli K12) (UniProt P26616)
# Assay: Inhibition of Escherichia coli K-12 recombinant NAD-dependent malic enzyme at 0.2 mM
# Chain of NAD-dependent malic enzyme (Escherichia coli K12) (P26616 whole entry, looked up): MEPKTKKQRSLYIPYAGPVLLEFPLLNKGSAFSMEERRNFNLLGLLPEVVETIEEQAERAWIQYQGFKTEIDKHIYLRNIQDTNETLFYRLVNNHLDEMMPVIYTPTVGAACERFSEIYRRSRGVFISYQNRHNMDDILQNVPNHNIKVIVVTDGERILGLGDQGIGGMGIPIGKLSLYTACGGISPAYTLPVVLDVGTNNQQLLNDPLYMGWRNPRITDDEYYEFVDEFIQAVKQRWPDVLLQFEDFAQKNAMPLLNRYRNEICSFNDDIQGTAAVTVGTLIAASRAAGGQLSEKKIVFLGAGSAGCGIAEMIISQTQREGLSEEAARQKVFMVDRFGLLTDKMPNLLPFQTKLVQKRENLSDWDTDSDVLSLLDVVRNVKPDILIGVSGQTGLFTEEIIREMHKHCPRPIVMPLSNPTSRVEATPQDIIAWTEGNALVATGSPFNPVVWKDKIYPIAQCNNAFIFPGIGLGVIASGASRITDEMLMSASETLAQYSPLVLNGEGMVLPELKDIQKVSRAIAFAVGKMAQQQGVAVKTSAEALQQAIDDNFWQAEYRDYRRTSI
row,SMILES,inhibition
1,O=P(O)(O)OC[C@H]1O[C@@H](n2cc(-c3ccccc3F)nn2)[C@H](O)[C@@H]1O,Active
2,O=P(O)(O)OC[C@H]1O[C@@H](n2cc(-c3ccc(F)cc3)nn2)[C@H](O)[C@@H]1O,Active
3,CC(=O)NCc1cn([C@@H]2O[C@H](COP(=O)(O)O)[C@@H](O)[C@H]2O)nn1,Active
4,O=P(O)(O)OC[C@H]1O[C@@H](n2cc(-c3ccccc3)nn2)[C@H](O)[C@@H]1O,Active
5,O=C(NCc1cn([C@@H]2O[C@H](COP(=O)(O)O)[C@@H](O)[C@H]2O)nn1)c1ccccc1,Active
6,COc1ccc(-c2cn([C@@H]3O[C@H](COP(=O)(O)O)[C@@H](O)[C@H]3O)nn2)cc1,Active
7,O=P(O)(O)OC[C@H]1O[C@@H](n2cc(-c3ccccc3C(F)(F)F)nn2)[C@H](O)[C@@H]1O,Active
8,O=P(O)(O)OC[C@H]1O[C@@H](n2cc(CCO)nn2)[C@H](O)[C@@H]1O,Active
9,Cc1ccccc1-c1cn([C@@H]2O[C@H](COP(=O)(O)O)[C@@H](O)[C@H]2O)nn1,Active
10,Nc1ccccc1-c1cn([C@@H]2O[C@H](COP(=O)(O)O)[C@@H](O)[C@H]2O)nn1,Active
11,O=P(O)(O)OC[C@H]1O[C@@H](n2cc(-c3cccc4ccccc34)nn2)[C@H](O)[C@@H]1O,Active
